This experiment deals with T1, AceR (Acinetobacter baumannii, UniProt P0DUU5).
T1 sequence (P0DUU5 84-297): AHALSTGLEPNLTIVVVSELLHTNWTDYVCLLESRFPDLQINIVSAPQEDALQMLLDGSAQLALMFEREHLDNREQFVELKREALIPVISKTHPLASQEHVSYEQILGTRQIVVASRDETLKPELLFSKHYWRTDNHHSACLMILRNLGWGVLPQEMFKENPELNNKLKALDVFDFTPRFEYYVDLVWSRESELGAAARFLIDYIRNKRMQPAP
As to the kind of experiment: SPR. It counts as binding.

Turning to `[H]/N=C(\N/C(=N/[H])NCCCCCCNC(=N)NC(=N)Nc1ccc(Cl)cc1)Nc1ccc(Cl)cc1` [chlorhexidine], the Kd – broadly, the concentration at which binding is half-saturated – worked out at 62.3 µM.

For the origin of these results see publication PMC5961012 (Journal of Antimicrobial Chemotherapy, 2018).
